# Experimental data: ChEMBL document CHEMBL5550165, “Novel quinoxaline analogs as telomeric G-quadruplex ligands exert antitumor effects related to enhanced immunomodulation” (Eur J Med Chem, 2024)
# Calls of active or inactive are those of the source. The rule behind the calls is not given here.
# Legend:
# [1] = Cytotoxicity against human MCF-10A cells incubated for 24 hrs by CCK-8 reagent based spectrophotometric analysis; assay type: toxicity, cell-based
# 4T1 [2] = experiment: Cytotoxicity against mouse 4T1 cells incubated for 24 hrs by CCK-8 reagent based spectrophotometric analysis; assay type: functional, cell-based; settings: 4T1, 24 h
# MCF7 = experiment: Cytotoxicity against human MCF7 cells incubated for 24 hrs by CCK-8 reagent based spectrophotometric analysis; assay type: functional, cell-based; settings: MCF7, 24 h
# U2OS = experiment: Cytotoxicity against human U2OS cells incubated for 24 hrs by CCK-8 reagent based spectrophotometric analysis; assay type: functional, cell-based
# Quadruplex DNA [3] = experiment: Stabilization of G-quadruplex telomeric DNA in human MDA-MB-231 cells assessed as increase in BG4-positive cell nuclei at 3 uM incubated for 24 hrs by DAPI staining based immunofluorescence microscopic analysis
# Quadruplex DNA [4] = experiment: Stabilization of G-quadruplex telomeric DNA in human MDA-MB-231 cells assessed as increase in colocalization of BG4 and TRF2 formation foci at 3 uM incubated for 24 hrs by DAPI staining based immunofluorescence microscopic analysis; assay type: cell-based
# DNA [5] = experiment: Binding affinity to Mitochondrial DNA (unknown origin) assessed as increase in melting temperature by CD spectrophotometric analysis; assay type: nucleic-acid assay
# MDA-MB-231 [6] = experiment: Induction of DNA damage in human MDA-MB-231 cells assessed as upregulation of gamma-H2AX expression at 1 to 4 uM incubated for 24 hrs by Western blot analysis; assay type: functional, cell-based; settings: dose 1-4 µM
# MDA-MB-231 [7] = experiment: Induction of DNA damage in human MDA-MB-231 cells assessed as upregulation of CHK2 phosphorylation incubated for 24 hrs by Western blot analysis; assay type: functional, cell-based
# MDA-MB-231 [8] = experiment: Induction of DNA damage in human MDA-MB-231 cells assessed as upregulation of ATM phosphorylation at 4 uM by Western blot analysis; assay type: functional, cell-based; settings: TDE = time-dependent effect
# MDA-MB-231 [9] = experiment: Induction of cell cycle arrest in human MDA-MB-231 cells assessed as accumulation of cells at G0/G1 phase at 1 uM incubated for 24 hrs by RNase/PI staining based flow cytometry (reference value: 82.3 %); assay type: functional
# MDA-MB-231 [10] = experiment: Induction of cell cycle arrest in human MDA-MB-231 cells assessed as accumulation of cells at S phase at 1 uM incubated for 24 hrs by RNase/PI staining based flow cytometry (reference value: 6.3 %); assay type: functional
# MDA-MB-231 [11] = experiment: Induction of cell cycle arrest in human MDA-MB-231 cells assessed as accumulation of cells at G2/M phase at 1 uM incubated for 24 hrs by RNase/PI staining based flow cytometry (reference value: 11.3 %); assay type: functional
# MDA-MB-231 [12] = experiment: Induction of cell cycle arrest in human MDA-MB-231 cells assessed as accumulation of cells at G2/M phase at 2 uM incubated for 24 hrs by RNase/PI staining based flow cytometry (reference value: 11.3 %); assay type: functional
# MDA-MB-231 [13] = experiment: Induction of apoptosis in human MDA-MB-231 cells assessed as increase in Annexin V-positive cells at 1 to 4 uM incubated for 24 hrs by Annexin V-633/PI staining based flow cytometry; assay type: functional, cell-based; settings: dose 1-4 µM
# MDA-MB-231 [14] = experiment: Induction of apoptosis in human MDA-MB-231 cells assessed as upregulation of cleaved PARP expression at 1 to 4 uM incubated for 24 hrs by Western blot analysis; assay type: functional, cell-based; settings: dose 1-4 µM
# [15] = Drug uptake in human MDA-MB-231 cells assessed as increase in fluorescence intensity in tumor spheroid incubated for 24 hrs; assay type: ADME, cell-based; settings: mda-mb-231, 24 h
# MDA-MB-231 [16] = experiment: Antiproliferative activity against human MDA-MB-231 cells assessed as reduction in tumor spheroid volume at 10 uM incubated for 7 days by propidium iodide staining based fluorescence analysis; assay type: functional, cell-based; settings: time 7.0 day
# MDA-MB-231 [17] = experiment: Induction of immunogenic cell death in human MDA-MB-231 cells assessed as increase in CRT expression incubated for 24 hrs by immunofluorescence confocal laser scanning microscopic analysis; assay type: functional, cell-based
# MDA-MB-231 [18] = experiment: Induction of immunogenic cell death in human MDA-MB-231 cells assessed as increase in HMGB1 release at 1 to 4 uM incubated for 24 hrs by ELISA; assay type: functional, cell-based; settings: dose 1-4 µM
# MDA-MB-231 [19] = experiment: Induction of immunogenic cell death in human MDA-MB-231 cells assessed as increase in ATP release at 1 to 4 uM incubated for 24 hrs by ELISA; assay type: functional, cell-based; settings: dose 1-4 µM
# DNA [20] = experiment: Binding affinity to DNA (unknown origin) assessed as dissociation constant by Benesi-Hildebrand equation based analysis; assay type: nucleic-acid assay
# DNA [21] = experiment: Binding affinity to Hairpin DNA (unknown origin) assessed as thermal shift at 10 uM by UV-Visible spectrophotometric analysis; assay type: nucleic-acid assay
# BMDC = experiment: Induction of immunogenic cell death in BALB/c mouse BMDC cells co-cultured with mouse 4T1 cells assessed as increase in CD11c+ CD80+ CD86 cells maturation at 2.5 uM incubated for 24 hrs by flow cytometry (reference value: 69.4 %); assay type: functional
# 4T1 [22] = experiment: Antitumor activity against mouse 4T1 cells implanted in BALB/c mouse assessed as reduction in tumor weight at 10 mg/kg,ip every other day for 14 days; assay type: functional, organism-based; settings: time 14.0 day
# [23] = Toxicity in BALB/c mouse implanted with mouse 4T1 cells assessed as histopathological change in liver at 10 mg/kg,ip every other day for 14 days by hematoxylin and eosin staining analysis; assay type: organism-based; settings: in vivo, 336 h, time 14 day
# [24] = Toxicity in BALB/c mouse implanted with mouse 4T1 cells assessed as histopathological change in spleen at 10 mg/kg,ip every other day for 14 days by hematoxylin and eosin staining analysis; assay type: organism-based; settings: in vivo, 336 h, time 14 day
# 4T1 [25] = experiment: Antitumor activity against mouse 4T1 cells implanted in BALB/c mouse assessed as upregulation of cleaved caspase-3 expression in tumor at 10 mg/kg,ip every other day for 14 days by Western blot analysis; assay type: functional, organism-based; settings: time 14.0 day
# 4T1 [26] = experiment: Antitumor immunity against mouse 4T1 cells implanted in BALB/c mouse assessed as increase in proportion of CD4+ T cells in spleen at 10 mg/kg,ip every other day for 14 days by flow cytometry; assay type: functional, organism-based; settings: time 14.0 day
# 4T1 [27] = experiment: Antitumor immunity against mouse 4T1 cells implanted in BALB/c mouse assessed as increase in proportion of CD8+ T cells in spleen at 10 mg/kg,ip every other day for 14 days by flow cytometry; assay type: functional, organism-based; settings: time 14.0 day
# 4T1 [28] = experiment: Antitumor immunity against mouse 4T1 cells implanted in BALB/c mouse assessed as increase in proportion of CD4+ T cells in tumor at 10 mg/kg,ip every other day for 14 days by flow cytometry; assay type: functional, organism-based; settings: time 14.0 day
# 4T1 [29] = experiment: Antitumor immunity against mouse 4T1 cells implanted in BALB/c mouse assessed as increase in proportion of CD8+ T cells in tumor at 10 mg/kg,ip every other day for 14 days by flow cytometry; assay type: functional, organism-based; settings: time 14.0 day
# 4T1 [30] = experiment: Antitumor immunity against mouse 4T1 cells implanted in BALB/c mouse assessed as increase in proportion of CD4+ T cells in tumor at 10 mg/kg,ip every other day for 14 days by immunohistochemistry staining based analysis; assay type: functional, organism-based; settings: time 14.0 day
# 4T1 [31] = experiment: Antitumor immunity against mouse 4T1 cells implanted in BALB/c mouse assessed as increase in serum IL-6 level at 10 mg/kg,ip every other day for 14 days by ELISA; assay type: functional, organism-based; settings: time 14.0 day
# MDA-MB-231 [32] = experiment: Induction of DNA damage in human MDA-MB-231 cells assessed as increase in micronuclei frequency in aberrant cell at 4 uM incubated for 24 hrs by DAPI staining based microscopic analysis; assay type: functional
smiles,measurement,setting,value
CN(C)CCN(C)c1ccc(-c2nc3ccc(C(F)(F)F)cc3nc2-c2ccc(N(C)CCN(C)C)cc2)cc1,IC50 at 24 h,[1],5.8 µM
same,IC50,4T1 [2],4.6 µM
same,IC50,MCF7,3.6 µM
same,IC50,U2OS,3 µM
same,Activity,Quadruplex DNA [3],Active
same,Activity,Quadruplex DNA [4],Active
same,Activity,DNA [5],Active
same,Activity,MDA-MB-231 [6],Active
same,Activity,MDA-MB-231 [7],Dose-Dependent Effect
same,Activity,MDA-MB-231 [8],Tde
same,Activity,MDA-MB-231 [9],82.1%
same,Activity,MDA-MB-231 [10],6.4%
same,Activity,MDA-MB-231 [11],11.4%
same,Activity,MDA-MB-231 [12],11.5%
same,Activity,MDA-MB-231 [13],Active
same,Activity,MDA-MB-231 [14],Active
same,Drug uptake,[15],Active
same,Activity,MDA-MB-231 [16],inactive
same,Activity,MDA-MB-231 [17],Dose-Dependent Effect
same,Activity,MDA-MB-231 [18],Active
same,Activity,MDA-MB-231 [19],Active
same,Kd,DNA [20],1.4 µM
same,Activity,DNA [21],inactive
same,Activity,BMDC,70.1%
same,Activity,4T1 [22],Active
same,Activity,[23],Non-Toxic
same,Activity,[24],Non-Toxic
same,Activity,4T1 [25],Active
same,Activity,4T1 [26],Active
same,Activity,4T1 [27],Active
same,Activity,4T1 [28],Active
same,Activity,4T1 [29],Active
same,Activity,4T1 [30],Active
same,Activity,4T1 [31],Active
same,Activity,MDA-MB-231 [32],Active
